According to article PMC7248897, “Synthesis, Biological Evaluation and In Silico Studies of Certain Oxindole–Indole Conjugates as Anticancer CDK Inhibitors” (Molecules, 2020):

Tests used:
[1] = tested on: MCF-7 breast cancer cell line; test: SRB anti-proliferative assay, MCF-7; type: cell-based, human; conditions: for IC50: Homo sapiens, MCF7, SRB assay, 48 h, mean ± S.D. from 3 separate experiments, read-out: IC50 MCF-7; for fold enhancement of anti-proliferative activity compared to 6a: MCF-7, ratio of IC50 values
Protocol: Cytotoxicity was assessed following the SRB colorimetric assay protocol, as reported earlier.
1. Anti-proliferative action toward human breast cell lines […]
(§1) have been obtained from American Type Culture Collection (ATCC). The cells were maintained in Dulbecco's modified Eagle's medium (DMEM) supplemented with 10% heat inactivated fetal calf serum (GIBCO), penicillin (100 U/ml) and streptomycin (100 µg/ml) at 37 °C in humidified atmosphere containing 5% CO2. Cells at a concentration of […]
The anti-proliferative activity of the tested hybrids 6a-i, 9a-f and 11a, b was measured in vitro using the Sulfo-Rhodamine-B stain (SRB) assay. Briefly, Cells were inoculated in 96-well microtiter plate (5X104 cells/ well) for 24 h before treatment with the tested compounds to allow attachment of cell to the wall of the plate. Tested compounds were dissolved in DMSO at 1 mg/ml immediately before use and diluted to the appropriate volume just before addition to the cell culture. Different concentrations of tested compounds, doxorubicin and sorafenib were added to the cells (three wells were prepared for each individual dose). Cells were incubated with the compounds for 48 h at 37°C and in atmosphere of 5% CO2. After 48 h cells were fixed, washed, and stained for 30 min with 0.4% (w/v) SRB dissolved in 1% acetic acid. Unbound dye was removed by four washes with 1% acetic acid, and attached stain was recovered with Tris-EDTA buffer.
Color intensity was measured in an ELISA reader. […]

MCF-7 cells [2] = test: Cell cycle analysis by flow cytometry (PI); type: cell-based, human; conditions: for fold elevation in sub-G1 phase / fold increase of cells in G2/M phase: MCF-7, in comparison to the control (DMSO); for %Sub-G1 / %G2/M / %S / %G0–G1: MCF-7 cells treated at IC50, 24 h; for %Sub-G1: control 1.37; for %G2/M: control 14.73; for %S: control 27.45; for %G0–G1: control 56.45
Protocol: Most of the cytotoxic agents wield their anti-proliferative effect by arresting the cell cycle at some checkpoints. Cell cycle analysis employs flow cytometry to distinguish cells within the different cell cycle phases. […] MCF-7 cells were treated by the IC50 of the two conjugates and their impact on the cell population was recorded. […] This was accompanied by discernible escalation in the proportion of cells in the G2/M phase by 2.80- and 2.46-fold with concomitant elevation in the sub-G1 phase by 17.8 and 16.25-fold, respectively, in comparison to the control (DMSO). […]
as §1, with “The two examined human breast cancer cell lines (MCF-7 and Breast MDA-MB-231) have” for “have”, “of 0.50 x 106 were grown in a 25 cm2 flask in 5 ml of culture medium.” for “of”
Breast cancer MCF-7 cells were treated with hybrids 6e and 6f for 24 h (at their IC50 concentration), and then cells were washed twice with ice-cold phosphate buffered saline (PBS). Subsequently, the treated cells were collected by centrifugation, fixed in ice-cold 70% (v/v) ethanol, washed with PBS, re-suspended with 100 μg/mL RNase, stained with 40 μg/mL PI, and analyzed by flow cytometry using FACS Calibur (Becton Dickinson, BD, Franklin Lakes, NJ, USA). The cell cycle distributions were calculated using CellQuest software 5.1 (Becton Dickinson).

MCF-7 cells [3] = test: Annexin V-FITC apoptosis assay; type: cell-based, human; conditions: for fold increase of entire apoptosis percentage: MCF-7, in comparison to the control (DMSO); for percent of Anx V-FITC positive cells (entire apoptosis): MCF-7 cells treated at IC50
Protocol: Anx V-based flow cytometry assay represents a helpful tactic for determining whether death of cells is attributed to programmed apoptosis or to uncontrolled necrosis.
This clearly verifies that cell death resulting from the anti-proliferative action of the target hybrids was attributable to physiological apoptosis and not to nonspecific necrosis.
Assessment of the levels for the proapoptotic markers (Bax, caspase-3, and p53) as well as the antiapoptotic marker (Bcl-2) was carried out through the use of ELISA colorimetric kits in accordance with the manufacturer’s instructions, as mentioned earlier. In addition, the pro-apoptotic potential of indoles 6e and 6f towards MCF-7 cells was evaluated through an FITC Annexin V apoptosis detection kit by flow cytometry, in accordance with the manufacturer’s protocol and referring to the reported procedures. […]
4. Annexin V-FITC Apoptosis Assay
Phosphatidylserine externalization was assayed using Annexin V-FITC/PI apoptosis detection kit (BD Biosciences, USA) according to the manufacturer’s instructions. Breast cancer MCF-7 cells were cultured to a monolayer then treated with hybrids 6e and 6f at their IC50 concentration. Briefly, cells were then harvested via trypsinization, and rinsed twice in PBS followed by binding buffer. Moreover, cells were re-suspended in 100 μL of binding buffer with the addition of 1 μL of FITC-Annexin V followed by an incubation period of 30 min at 4 °C. Cells were then rinsed in binding buffer and resuspended in 150 μL of binding buffer with the addition of 1 μL of DAPI (1 μg/μL in PBS). Cells were then analyzed using the flow cytometer BD FACS Canto II and the results were interpreted with FlowJo7.6.4 software (Tree Star, Ashland, OR, USA).

CDK2 = target: T1, CDK2 (Homo sapiens, UniProt P24941); test: CDK2 kinase inhibition (Reaction Biology HotSpot); type: biochemical; conditions: single dose of 20 µM; read-out: % Enzyme Inhibitory Activity CDK2
T1 construct: purchased Reaction Biology Corp. (Kinase HotSpot service)
Text: 5. CDK Kinase Inhibitory Activity
along with required cofactors.
Kinase activity data were
(dimethyl sulfoxide) reactions.

Row | IC50 [1] [nM] | inhibition at 20 µM (CDK2) [%] | Compound | fold enhancement of anti-proliferative activity compared to 6a [1] [fold] | fold elevation in sub-G1 phase (MCF-7 cells [2]) [fold] | fold increase of cells in G2/M phase (MCF-7 cells [2]) [fold] | %Sub-G1 (MCF-7 cells [2]) [%] | %G2/M (MCF-7 cells [2]) [%] | %S (MCF-7 cells [2]) [%] | %G0–G1 (MCF-7 cells [2]) [%] | fold increase of entire apoptosis percentage (MCF-7 cells [3]) [fold] | percent of Anx V-FITC positive cells (entire apoptosis) (MCF-7 cells [3]) [%]
1 | 390 ± 50 | ≥ 50 | Cc1ccc2c(c1)/C(=N/NC(=O)c1cc3ccccc3[nH]1)C(=O)N2 [6e] | 8 | 17.8 | 2.80 | 24.49 | 41.47 | 14.81 | 19.23 | 33.75 | 29.7
2 | 1850 ± 80 | ≥ 50 | COc1ccc2c(c1)/C(=N/NC(=O)c1cc3ccccc3[nH]1)C(=O)N2 [6f] | 1.7 | 16.25 | 2.46 | 22.26 | 36.26 | 19.29 | 22.19 | 28.60 | 25.17
